Reference: patent US6660742B2, “Compositions and methods of the use thereof achiral analogues of CC-1065 and the duocarmycins” (priority 2000, dated 2003)
Several values for one entry are separate records, joined by “and”; a condition that tells them apart may be missing. Identical values can stand only once. Like-named read-outs stand apart in the source and are kept apart here.

Legend:
A549/ATCC = assay: cells; conditions: Homo sapiens, A549, 48 h
A498 = assay: NCI screen, A498 (Renal Cancer); format: cell-based, human
Procedure: (§1) The compounds of this invention were also tested against the panel of 60 human cancer cell lines at the National Cancer Institute, Bethesda, Md. […] The cytrotoxicity studies were conducted using a 48 hour exposure, and measuring the optical density of sulforhodamide B-derived color.

supercoil pBR322 DNA = assay: pBR322 strand nicking assay; format: biochemical
Excerpt: When a compound is covalently bound to a purine-N3 in the minor groove of DNA, the adduct is thermally unstable. It is readily hydrolyzed to produce a DNA strand (2). Consequently, the formation of adenine-N3 (or guanine-N3) alkylation adducts can be detected by thermal conversion of supercoil pBR322 DNA (Form I) to nicked open […] DNA (Form II) as a result of the formation of single strand breaks. These two different forms of pBR322 DNA can then be separated by agarose gel electrophoresis, and the relative amounts of each form can be determined by densitometry of methylene blue stained gels (39). The supercoil form of pBR322 DNA is more compact than the open circular form, and as a result, moves further down the gel towards the positive electrode.
Solutions of the drugs dissolved in N,N-dimethylacetamide (DMA) were made at 0.10 mM concentrations, and were always stored in the refrigerator.
Tris buffer solution at pH 7.4 at 25° C. and 0.010 M was made from Tris HCl (0.661 g), Tris base (0.097 g) diluted to a 100 mL volume with distilled water. Then EDTA-Na2—2H2O (0.186 g) and KCl (3.72 g) were added to the Tris HCl solution and diluted to 500 mL volume with distilled water. A TBE solution was prepared from Carolina Lot #4020602 Electrophoresis buffer 20 times TBE diluted to a volume of three liters with deionized water. The agarose gel was prepared from agarose low EEO (0.32 g) dissolved in TBE buffer (40 mL) and heated in a microwave oven until dissolved.
The pBR322 DNA (100 μg/100 μL) from Pharmacia Biotech was in a buffer (10 mM Tris-HCl pH 7.5, and 1 mM EDTA). The DNA was prepared from plasmid DNA isolated from E. coli HB101 by the alkaline lysate procedure and was purified by Sepharcryl S-100 chromatography followed by CsCl-ethidium bromide centrifugation.
The alkylation samples were prepared by adding DNA (10 μL), Tris-EDTA KCl buffer (18 μL), and compound (2 μL) at 100 μM concentration to Eppendorf tubes. The samples were incubated at 40° C. for 40 h. The samples were removed then centrifuged for one minute. 10% SDS (sodium dodecylsulfate) (2 μL), 50% glycerol (5 μL), and bromophenol blue (2 μL) were added to the samples. The contents of the tubes were mixed with a Vortex mixer then centrifuged to consolidate the samples. The agarose gel was covered with TBE-buffer in the chamber. The samples were loaded onto the agarose gel and run at 40 V for three hours, or when the band were about three/fourths of the way down the gel.
The gel was removed and stained with methylene blue (45 min). At this time, the stained gel was placed in a water chamber overnight. The intensities of each band i.e. Form I and II were determined using densitometry.

[1] = tested on: K562 human chronic myeloid leukemia cells; assay: MTT cytotoxicity on K562 cells; format: cell-based; conditions: K562 cells
[2] = tested on: MCF-7 (human breast cancer cells); assay: SRB cytotoxicity on MCF-7 cells; format: cell-based
Procedure: Cells were seeded in 96-well microtiter plates at densities of 1000 cells/well. The optimal seeding density was determined to ensure exponential growth in control wells throughout the experimental period and to obtain a linear relationship between absorbance at 492 nm and cell number when analyzed by the sulforhodamine B (SRB) assay (43). 24 hours after seeding the cells were incubated for 1 hour or continuously for 3 days with the drugs (concentration range 0.01 to 500 μM). The cells were washed once and then incubated in drug free medium for 6 days. At the end of the incubation cell growth was determined by the SRB assay, which quantifies viable cells by measuring their total cellular protein content. […] Similar studies were conducted against the growth of PC3 (human prostate cancer cells) and MCF-7 (human breast cancer cells).

L1210 leukemia cells = assay: MTT cytotoxicity on L1210 cells; format: cell-based, murine; conditions: 72 hr incubation
Procedure: The P815 and L1210 cell lines were obtained from American Type Tissue Culture Collection (ATCC). The cell lines were grown in Delbecco's Modified Eagle Medium (DMEM, Atlanta Biologicals) supplemented with 10% fetal bovine serum, Hepes Buffer (2 mM, Mediatech Cellgro, 25-060-Cl), L-Glutamine (2 mM, Mediatech Cellgro), and penicillin/streptomycin (50,000 units penicillin, 50,000 […], Atlanta Biologicals). Cells were maintained at 37° C. in a 5% humidified CO2 atmosphere. Cultured cells were counted using a hemocytometer and resuspended in fresh DMEM at a concentration of 8×10^5 cells/mL. This cell suspension (100 μL) was added to 96 well flat -bottom cell culture plates. At this concentration, 80,000 cells were seeded in each well. Drug solutions (dissolved in DMSO and diluted in DMEM) were added to each well (5 μL/well) resulting in final concentrations ranging from 1×10^−4 to 1×10^−12 M. Quadruplicate wells were prepared for each drug concentration. The plates were incubated for 72 hr at 37° C. in a 5% CO2 atmosphere. MTT (3-(4,5-dimethylthiazol-2-yl)-2,5-diphenyl tetrazolium bromide) was dissolved in PBS (5 mg/ml). After the indicated cell incubation period, 10 μL of this stock MTT solution was added to each well and the plates were further incubated for 4 h at 37° C. in a 5% CO2 atmosphere. […] The contents of the well were mixed thoroughly by pipetting the cell suspension up and down and the plates were allowed to sit at room temperature for 15 min in order to allow for full development of the purple color. The plates were read on a Dynatech Plate Reader, utilizing Dynex Revelation 3.2 software, with a test wavelenth of 570 nm and a reference wavelength of 630 nm.

Procedure for BT-549: The compounds of this invention were also tested against the panel of 60 human cancer cell lines at the National Cancer Institute, Bethesda, Md. (44). The cytrotoxicity studies were conducted using a 48 hour exposure, and measuring the optical density of sulforhodamide B-derived color.
Procedure for DU-145: as §1
Procedure for MALME-3M: as §1
Procedure for OVCAR-4: as §1
Procedure for SK-MEL-28: as §1
Procedure for U251: as §1
Procedure for UO-31: as §1

Molecule `COC(=O)c1[nH]c2c(O)cc(NC(=O)c3cc4cc(OC)c(OC)c(OC)c4[nH]3)c(CCCl)c2c1C(=O)OC` [Compound 22, Dimethyl 4-(2-chloroethyl)-7-hydroxy-5-(5,6,7-trimethoxyindole-2-carboxamido)indole-2,3-dicarboxylate] has a GI50 (A549/ATCC) of 0.135 µM, a CC50 (A549/ATCC; read-out: LC50) greater than 50 µM and a TGI (A498; 48 hour exposure) of 5.15E−06 Molar. The “Percent Growth” value (A498; Log10 Concentration −4.3, 48 hour exposure) was −82%, the “Percent Growth” value (A498; Log10 Concentration −5.3, 48 hour exposure) was 1% and the “Percent Growth” value (A498; Log10 Concentration −6.3, 48 hour exposure) was 5%. The “Percent Growth” value (A498; Log10 Concentration −7.3, 48 hour exposure) was 98% and the “Percent Growth” value (A498; Log10 Concentration −8.3, 48 hour exposure) was 95%.
`O=C(Nc1cc(O)ccc1CCCl)c1cc2cc(NC(=O)c3cc4ccccc4o3)ccc2[nH]1` [Compound 1, 4-(2-Chloroethyl)-3-[5-(5-benzofuran-2-carboxamido)indole-2-carboxamido]phenol] was tested, and the “Form I DNA (%)” value (supercoil pBR322 DNA) was 73 ± 2%, the “Form II DNA (%)” value (supercoil pBR322 DNA) was 27 ± 4% and the CC50 (SK-MEL-28) was 21.4 µM. For the same molecule, the “Percent Growth” value (DU-145) was 53%, the GI50 (DU-145; DU-145) was 1.12 µM and the TGI (DU-145; DU-145) was 6.16E−06 Molar. For the same molecule, the “Percent Growth” value (DU-145; DU-145, Log10 Concentration −4.0) was −96%, the “Percent Growth” value (DU-145; DU-145, Log10 Concentration −5.0) was −14% and the “Percent Growth” value (DU-145; DU-145, Log10 Concentration −7.0) was 104%. For the same molecule, the “Percent Growth” value (DU-145; DU-145, Log10 Concentration −8.0) was 101%, the GI50 (MALME-3M) was 1.84 µM and the TGI (MALME-3M) was 3.56E−06 Molar. The “Percent Growth” value (MALME-3M; Log10 Concentration −4.0) was −95%, the “Percent Growth” value (MALME-3M; Log10 Concentration −7.0) was 102% and the “Percent Growth” value (MALME-3M; Log10 Concentration −8.0) was 102%. It also gave an IC50 ([1]; continuous exposure (3 days), read-out: IC50 continuous exposure (3 days)) of 1.47 ± 0.8 µM, an IC50 ([1]; read-out: IC50 1 hour exposure, 1 hour exposure) of 12.1 ± 1.8 µM and an IC50 ([2]; continuous exposure, read-out: IC50 MCF-7 Continuous exposure) of 3.43 µM. For the same molecule, the IC50 ([2]; read-out: IC50 MCF-7 1 hour exposure, 1 hour exposure) was greater than 50 µM, the CC50 (BT-549) was greater than 100 µM and the IC50 (L1210 leukemia cells) was 23 µM. The CC50 (UO-31) was 20 µM, the “Percent Growth” value (OVCAR-4) was 108% and 128% and the GI50 (OVCAR-4; OVCAR-4) was 2.39 µM. The TGI (OVCAR-4; OVCAR-4) was 5.06E−06 Molar, the “Percent Growth” value (OVCAR-4; OVCAR-4, Log10 Concentration −4.0) was −82% and the “Percent Growth” value (OVCAR-4; OVCAR-4, Log10 Concentration −5.0) was −45%. The “Percent Growth” value (OVCAR-4; OVCAR-4, Log10 Concentration −7.0) was 115% and the CC50 (U251) was 53.9 µM.
